Series [1] can be described thus: Cytotoxicity assay (Cell Titer Glo). The settings on record: African green monkey, CC50 (μM), Vero cells.
In series [2] the target is T1, EV-A71 Δ2C^116-329 (Human enterovirus 71, UniProt Q66478).
T1 construct: EV-A71 Δ2C (amino acids 116-329) was designed with; made in house; host or cells: E. coli Rosetta 2(DE3) pLysS, pMALc5x vector
Kind of series: biochemical. It counts as biochemical. The settings on record: for inhibition of the ATPase function of Δ2C^116-329 (absorbance below 3SD cutoff): single concentration 50 μM.

The test system of series [3] is EV-A71. Kind of series: CPE inhibition assay (Cell Titer Glo) against EV-A71 in Vero cells. It counts as cell-based, Enterovirus A71. The settings on record: for Selectivity Index: CC50/IC50; for anti-viral activity of analogs of Compound T3 (luminescence above 3SD cutoff): single concentration 25 μM; for anti-viral activity (luminescence above 3SD cutoff): single concentration 50 μM; for selectivity index: from IC50 and CC50.

In series [4] the target is T2, EV-A71 Δ2C^116-329 (2C ATPase) (Enterovirus A71, UniProt B9VUU3).
T2 construct: Ni-NTA and SEC purified
Kind of series: 2C ATPase inhibition assay (colorimetric malachite green, dose response). It counts as biochemical.

A short description of series [5]: in vitro. The settings on record: African green monkey.
For series [6], the system named is EV-A71-TN (VP1-T237N mutant). Format: cell-based, Enterovirus A71. The settings on record: 500 μM compound; Vero cells.
For series [7], the system named is wild type EV-A71 (WT). It counts as cell-based. The settings on record: 500 μM compound; Vero cells.
Series [8] concerns Vero cells. Kind of series: Cytotoxicity assay (Cell Titer Glo). The settings on record: for CC50: Vero cells.
Series [9] deals with EV-A71 Δ2C^116-329. The settings on record: previously observed; cited from earlier work.
[10] abbreviates: Enterovirus A, EVA71, Table 12, Scaffold 3, EV-A71, Vero cells, read-out: IC50.
[11] abbreviates: Enterovirus A, EVA71, EV-A71, Vero cells, read-out: IC50 for inhibition of virus-induced CPE.
Where [12] appears, read: Enterovirus A, EVA71, Table 7, EV-A71, Vero cells, read-out: IC50.

Entries after “also recorded” stand apart in the source; their conditions may differ. Where a name gives a salt, the structure may show the parent alone. Read-outs that look alike come from different tables or passages of the source.

T1 sequence (Q66478 1227-1440, stated change not applied): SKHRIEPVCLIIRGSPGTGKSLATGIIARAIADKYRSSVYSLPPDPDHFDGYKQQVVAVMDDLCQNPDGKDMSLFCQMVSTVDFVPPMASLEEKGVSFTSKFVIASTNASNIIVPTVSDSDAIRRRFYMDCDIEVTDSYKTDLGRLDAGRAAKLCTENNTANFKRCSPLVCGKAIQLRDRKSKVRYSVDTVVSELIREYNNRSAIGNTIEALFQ
T2 sequence (B9VUU3 1227-1440, stated change not applied): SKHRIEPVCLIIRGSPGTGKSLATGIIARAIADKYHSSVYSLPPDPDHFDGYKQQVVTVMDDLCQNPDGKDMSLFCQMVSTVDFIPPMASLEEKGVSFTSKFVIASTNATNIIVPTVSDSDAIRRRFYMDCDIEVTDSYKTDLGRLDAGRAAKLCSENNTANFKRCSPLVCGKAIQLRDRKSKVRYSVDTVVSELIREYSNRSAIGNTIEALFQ

In turn, `O=C(C=Cc1ccco1)Nc1ccc(-c2nc3ccccc3[nH]2)cc1` [Compound 20, N-[4-(1H-benzimidazol-2-yl)phenyl]-3-(2-furyl)acrylamide] gave a CC50 at 3 days in series [1] (Table 10, Scaffold 1) of more than 400 µM. The IC50 is 18.1 µM in [2] and 5.41 µM in series [3] (Enterovirus A, EVA71, Table 10, Scaffold 1, EV-A71, Vero cells, read-out: IC50). Further, the “Selectivity Index” value in series [3] (Table 10, Scaffold 1) was more than 73.94.
The molecule `CC(=O)Nc1ccc2[nH]c(-c3ccc(Br)o3)nc2c1` [Compound 52, N-[2-(5-bromo-2-furyl)-1H-benzimidazol-5-yl]acetamide] yielded a CC50 at 3 days in series [1] (Table 12, Scaffold 3) of 9.2 µM. Moreover, the IC50 in series [3] (setting [10]) turned out to be 7.1 µM. In [3] (Table 12, Scaffold 3), the “Selectivity Index” value is on record as 1.30.
For the molecule `Cc1ccc(-c2nc3cc(NC(=O)c4cccs4)ccc3[nH]2)o1` [Compound 55, N-[2-(5-methyl-2-furyl)-1H-benzimidazol-5-yl]-2-thiophenecarboxamide], the CC50 at 3 days in series [1] (Table 12, Scaffold 3) is more than 400 µM. Also, the IC50 in series [3] (setting [10]) is more than 25 µM.
With `O=C(Nc1ccc2[nH]c(-c3cccs3)nc2c1)c1cccs1` [Compound 56, N-[2-(2-thienyl)-1H-benzimidazol-5-yl]-2-thiophenecarboxamide], the CC50 at 3 days in series [1] (Table 12, Scaffold 3) worked out at 123 µM. Further, the IC50 in series [3] (setting [10]) came out at 20 µM. The “Selectivity Index” value in [3] (Table 12, Scaffold 3) is recorded as 6.17. Besides, the “anti-viral activity of analogs of Compound T3 (luminescence above 3SD cutoff)” value in [3] (EV-A71, Vero cells) is recorded as “have activity”.
For the molecule `O=C(Nc1ccc2[nH]c(-c3ccco3)nc2c1)c1cccs1` [Compound 57, N-[2-(2-furyl)-1H-benzimidazol-5-yl]-2-thiophenecarboxamide], the CC50 at 3 days came to 8.5 µM in [1] (Table 8) and 8.5 µM in series [1] (Table 12, Scaffold 3). The 50% inhibitory concentration (IC50) in [3] (Enterovirus A, EVA71, Table 8, virus-induced CPE, EV-A71, Vero cells, read-out: IC50) was 2.75 µM. Further, the “Selectivity Index” value in [3] (Table 8) turned out to be 3.09; in series [3] (Table 12, Scaffold 3), 3.09. In addition, in series [3] (EV-A71, Vero cells), the “anti-viral activity of analogs of Compound T3 (luminescence above 3SD cutoff)” value is on record as “have activity”.
`Cc1ccc2nc(-c3cccc(NC(=O)c4ccco4)c3)[nH]c2c1` [Compound 63, N-[3-(6-methyl-1H-benzimidazol-2-yl)phenyl]-2-furamide] came in with a CC50 at 3 days in [1] (Table 13, Scaffold 4) of 131 µM. Also, in series [3] (Enterovirus A, EVA71, Table 13, Scaffold 4, EV-A71, Vero cells, read-out: IC50), the IC50 was found to be 24.8 µM. In addition, the “Selectivity Index” value in series [3] (Table 13, Scaffold 4) is 5.28.
`OC(COC(c1ccc(F)cc1)c1ccc(F)cc1)Cn1cnc2cc(F)c(F)cc21` (centres unmarked) [Compound 108, 1-[bis(4-fluorophenyl)methoxy]-3-(5,6-difluoro-1H-1,3-benzodiazol-1-yl)propan-2-ol]: in [4], the IC50 was 57.3 µM. The “inhibition of the ATPase function of Δ2C^116-329 (absorbance below 3SD cutoff)” value in [2] was “inhibited 2C ATPase; also recorded: inhibited the ATPase function”. Further, the “anti-viral activity (luminescence above 3SD cutoff)” value in [3] (EV-A71, Vero cells) is given as “did not show activity above the threshold value”.
On to `Nc1nc(N)nc(COC(=O)CCc2c(-c3ccc(F)cc3)[nH]c3ccc(F)cc23)n1` [Compound 111, (4,6-diamino-1,3,5-triazin-2-yl)methyl 3-[5-fluoro-2-(4-fluorophenyl)-1H-indol-3-yl]propanoate], for which the IC50 in series [4] came to 7.5 µM; in [3] (setting [11]), 44.7 µM; in [3] (setting [12]), 44.7 µM. Besides, the CC50 at 3 days in [5] (CC50) and in [5] (CC50 (μM)) was 422 µM throughout. In [2], the “inhibition of the ATPase function of Δ2C^116-329 (absorbance below 3SD cutoff)” value is “inhibited 2C ATPase; also recorded: inhibited the ATPase function”. Also, the “Selectivity Index” value in series [3] (Table 7) worked out at 9.44. Besides, the selectivity index in [3] was 9.44. The “anti-viral activity (luminescence above 3SD cutoff)” value in [3] (EV-A71, Vero cells) is given as “inhibited EV-A71”.
In turn, `O=c1nc(C=Cc2cn(Cc3ccccc3Cl)c3ccccc23)cc(C(F)(F)F)[nH]1` [Compound 139, 4-(2-{1-[(2-chlorophenyl)methyl]-1H-indol-3-yl}ethenyl)-6-(trifluoromethyl)-1,2-dihydropyrimidin-2-one] gave an IC50 in [4] of 71.3 µM. In series [2], the “inhibition of the ATPase function of Δ2C^116-329 (absorbance below 3SD cutoff)” value is on record as “inhibited 2C ATPase; also recorded: inhibited the ATPase function”. Also, the “anti-viral activity (luminescence above 3SD cutoff)” value in series [3] (EV-A71, Vero cells) is on record as “did not show activity above the threshold value”.
For `O=C(Cn1nc2c(Oc3cccc(F)c3)nccn2c1=O)Nc1cccc(Cl)c1` [Compound 167, N-(3-chlorophenyl)-2-[8-(3-fluorophenoxy)-3-oxo-2H,3H-[1,2,4]triazolo[4,3-a]pyrazin-2-yl]acetamide], the IC50 in series [4] came to 61.2 µM; in series [3] (setting [11]), 59.4 µM; in series [3] (setting [12]) it was 59.4 µM. The CC50 at 3 days in series [5] (CC50) is more than 400 µM; in series [5] (CC50 (μM)) it was more than 1000 µM. Further, the entries for the “decrease in viral titer vs DMSO” value in series [6] and in series [7] were approximately 5 fold and approximately 100 fold, respectively. The “inhibition of the ATPase function of Δ2C^116-329 (absorbance below 3SD cutoff)” value in [2] is reported as “inhibited 2C ATPase; also recorded: inhibited the ATPase function”. Further, the “Selectivity Index” value in [3] (Table 7) is more than 16.8. In series [3], this molecule gave a selectivity index of more than 16.8. Also, the “anti-viral activity (luminescence above 3SD cutoff)” value in series [3] (EV-A71, Vero cells) is listed as “inhibited EV-A71”.
Turning to `Cc1ccc2[nH]c(-c3ccc(NC(=O)c4ccco4)cc3)nc2c1` [Compound T3, N-[4-(5-methyl-1H-benzimidazol-2-yl)phenyl]-2-furamide], the “toxicity to Vero cells” value in series [8] (up to 200 μM) is “no toxicity”. Further, in [1] (Table 6), the CC50 at 3 days is more than 200 µM. In addition, the IC50 was 2.9 µM in [3] (setting [11]) and 2.9 µM in series [3] (Enterovirus A, EVA71, Table 6, EV-A71, Vero cells, read-out: IC50). Also, the “Selectivity Index” value in [3] (Table 6) is more than 68.97. For the same molecule, the selectivity index in series [3] was more than 68.9.
In [8] (Table 6), `Cc1[nH]c2ccc(Br)cc2c1CCN` [Compound T5, [2-(5-bromo-2-methyl-1H-indol-3-yl)ethyl]aminehydrochloride] registered a CC50 of 61.6 µM. In addition, in series [3] (Table 6, EV-A71, Vero cells, read-out: IC50), the IC50 was 103 µM.
As to `Cl.N=C(N)N` [GnHCl, Guanidinium hydrochloride, reference compound], the “IC50 for inhibition of the ATPase activity of 2C” value in series [9] is listed as “millimolar range”. The IC50 amounted to 83600 µM in [2] (read-out: IC50 for ATPase inhibition) and 140 µM in [3] (read-out: IC50 for inhibition of EV-A71).
For “N-[4-(1H-benzimidazol-2-yl)phenyl]-2-(3-4-phenylthio)acetamide [Compound 22]”, the CC50 in [8] (Table 10, Scaffold 1) amounted to 761 µM.
With “N-[4-(5-methyl-1H-benzimidazol-2-yl)phenyl]-2-(3-7-phenylthio)acetamide [Compound 42]”, the CC50 in [8] (Table 10, Scaffold 1) stood at 684 µM. Also, the IC50 in series [3] (Table 10, Scaffold 1, EV-A71, Vero cells, read-out: IC50) was determined as 6.99 µM.

Values taken from patent US20240131007A1, “METHODS AND COMPOSITIONS FOR PICORNAVIRUS ANTI-VIRAL AGENTS” (University of Connecticut, priority 2022, published 2024).
